The text below walks through data of patent US4560676A, “N^α -desacetylthymosinα1 and process” (The Rockefeller University, priority 1981, dated 1985).

Where no end group is shown, it is not given here.

Assay [1] concerns spleen cells of adult thymectomized mice. Description: rosette inhibition assay (azathioprine-sensitive rosette assay). The class given is cell-based. Particulars: restoration of azathioprine sensitivity in rosette formation. On the procedure:
The desacetylthymosin α1 prepared and characterized above was compared with thymosin α1, prepared on both benzyhydrylamine and PAM resins in the rosette inhibition assay (azathioprine-sensitive rosette assay) as described by Dardenne and Bach in "The Biological Action of Thymic Hormones" (van Bekkum, D. K., Ed.), page 235 (Kooyker Scientific Publications, Rotterdam, 1975). In this assay the peptides are tested for ability to restore azathioprine sensitivity in rosette formation by spleen cells of adult thymectomized mice.

Assay [2] deals with T-cell differentiation and function. Particulars: several in vitro and in vivo assay systems; cited from earlier work.

Turning to “thymosin α1 (SDAAVDTSSEITTKDLKEKKEVVEEAEN; ends and bridges not checked; UniProt P06454 2-29, looked up) [synthetic thymosin α1 prepared on benzhydrylamine and PAM resins; component of thymosin fraction 5]”, the “activity in rosette inhibition assay compared with each other and with natural thymosin α1” value in assay [1] is recorded as “equally active”. The “activity relative to fraction 5” value in assay [2] is reported as 10 to 1000 times.

In the case of “SDAAVDTSSEITTKDLKEKKEVVEEAEN [desacetylthymosin α1, N^α -desacetylthymosin α1]”, the “activity in rosette inhibition assay compared with each other and with natural thymosin α1” value in assay [1] is reported as “equally active”.
